# From patent US20240024255A1 (priority 2022, published 2024)
# Marks after values point to notes of the source that are not given here.
# How the values were obtained:
# [1] = assay type: in vitro ADME
# Experimental: Briefly, 20 mL of the saline solution containing 1 mL plant extracts were acidified to pH 2.0 by adding porcine pepsin preparation (40 mg/mL in 0.1 M HCl) and allowed for gastric digestion at 37° C. in a shaker incubator. After 1 h, the pH of the solution was adjusted to 5.3 using 0.9 M NaHCO3 solution. To this added 200 μL of bovine and porcine bile extract solution (100 mg/mL in saline), and 100 μL of pancreatin solution (80 mg/mL in saline). The pH was readjusted to 7.5 using 1 M NaOH followed by incubation at 37° C. for 2 h to accomplish the intestinal digestion phase. Aliquots of samples before and after digestion were centrifuged at 5000 g; upper phase used for anti-lipase and antioxidant assays. The samples were further used for HPLC analysis to determine the bioavailability.
# HPLC analysis of the samples before and after gastrointestinal digestion was performed following the in-house validated chromatographic conditions using a Shimadzu LC2030 C Prominence-i (Japan) system equipped with a high sensitivity LC2030 ultraviolet (UV) detector and LabSolutions software.
# [2] = design: species or system Wistar rats; conditions: rat, in vivo, po, 1000 mg/kg
# Experimental: Twelve healthy male Wistar rats aged 10-12-week-old (250-300 g) were used for the bioavailability study. The animals were procured from Biogen Laboratory Animal Facility, Bangalore, India (Reg No. 971/PO/RcBiBt/S/06/CPCSEA). All the animals were housed in air-conditioned room under temperature (22±3° C.) and humidity (30-70%) controlled environment. The rats were fed standard rodent diet and water ad libitum. The animal experimentation protocol was approved by the Institutional Animal Ethics Committee (IAEC) of Vidya Herbs Pvt Ltd., Bangalore, India (VHPL/PCL/IAEC/02/2021).
# After 7-day acclimatization, the animals were fasted overnight prior to the experiment, with free access to water. […] The sample size was determined by power analysis (Festing and Altman, 2002) using the formula,
# The extracts were formulated in a mixture of Cremaphor, Tween 80, ethanol, and water. The extracts were administered by oral gavage at a single dose of 1000 mg/kg. The animals were anesthetised in anaesthesia chamber supplied with 2% gaseous isoflurane. Blood samples were collected from tail vein at 0.25, 0.5, 1, 2, 4, 8, 12 and 24 h after oral administration of extracts. The blood samples collected in heparinized tubes were centrifuged at 3000 rpm for 10 min. The plasma samples were stored at −20° C. for further analysis. […]
# [3] = test system: carrageenan-induced paw edema; assay: Carrageenan-induced acute inflammatory model (paw edema); assay type: in vivo, Wistar rats; conditions: Indomethacin 10 mg/kg.bw
# Experimental: Wistar rats were randomly allotted into six groups (n=6) and kept for 7-day acclimatization. Group 1 was treated as control, group 2 received indomethacin 10 mg/kg.bw. […] All animal studies have been carried out by following the animal ethical guidelines and regulation of Institutional Animal Ethics Committee of Vidya Herbs Pvt. Ltd. Bangalore. India. with the protocol number VHPL/PCL/IAEC/08/19.
# The carrageenan-induced paw edema test was performed in accordance with the method 17 with some modifications. Drugs were administered to all the respective groups. One hour later, the animals were injected with 0.01 mL of 1% (w/v) freshly prepared carrageenan solution into the right-hind paw sub plantar injection. Paw thickness and volume were measured after 30 min, 1, 2, 4, and 24 h after carrageenan injection using Vernier callipers and Plethysmometer, respectively. The percentage inhibition of inflammation was calculated.
# Data were analyzed using one-way analysis of variance (ANOVA) with Duncan multiple range test for means ±standard error, where *P<0.001 was considered to indicate statistically significant difference between groups. All the experimental data were derived from three independent experiments.
# [4] = molecular target: Monoamine oxidase-B (MAO-B); assay: MAO-B inhibition assay (rat liver homogenate); assay type: biochemical
# Experimental: The rat liver tissues were quickly removed to wash in ice-cold potassium phosphate buffer (0.2 M, pH 7.6), and stored at −80° C. 5 g of liver tissue was homogenized (1:20, w/v) in 0.3 M sucrose at 4° C. and centrifuged at 2000×g for 10 min. The supernatant was further centrifuged at 12000×g for 25 min. The resulting pellet suspended in minimal volume in 0.3 M sucrose and overlay on 1.3 M sucrose and centrifuge at 12000×g (40 min) to obtain a crude mitochondrial pellet. The pellet was resuspended in 2 mL 0.2 M phosphate buffer (pH 7.6) used as MAO-B enzyme source. Total protein concentration was measured by the method of Bradford and adjusted with buffer (0.2 M; pH 7.6) to 0.5 mg protein per ml (stock solution) and stored at −80° C. in aliquots until required.
# The assay was carried out in 96-well microplates according to the process modified by Holt' et al. (1997). […] Paragyline was used as the standard inhibitor.
compound,measurement,setting,value
"O=C(/C=C/c1ccc(O)cc1)CC(=O)/C=C/c1ccc(O)cc1 [BDMC, bisdemethoxycurcumin]",bioavailability with respect to undigested sample,[1],considerably higher
same,concentration in the samples at different digestive phases,[1],remained unchanged
same,AUC0-Last,[2],markedly increased
COc1ccc2c(c1)c(CC(=O)O)c(C)n2C(=O)c1ccc(Cl)cc1 [Indomethacin],Paw thickness,[3]; 0 h,2.41 ± 0.12 mm
same,Paw volume,[3]; 0 h,1.12 ± 0.04 mL
same,Paw thickness,[3]; 0.5 h,3.18 ± 0.09*** mm
same,Paw volume,[3]; 0.5 h,1.32 ± 0.04** mL
same,Paw thickness,[3]; 1 h,3.73 ± 0.07*** mm
same,Paw volume,[3]; 1 h,1.57 ± 0.08*** mL
same,Paw thickness,[3]; 2 h,3.12 ± 0.11*** mm
same,Paw volume,[3]; 2 h,1.47 ± 0.06*** mL
same,Paw thickness,[3]; 4 h,2.67 ± 0.09*** mm
same,Paw volume,[3]; 4 h,1.37 ± 0.03*** mL
same,Paw thickness,[3]; 24 h,2.43 ± 0.10*** mm
same,Paw volume,[3]; 24 h,1.16 ± 0.05*** mL
C#CCN(C)Cc1ccccc1 [paragyline],MAO-B IC-50,[4],6.5 µg/mL
